{"source": "patent US20080161366A1", "about": "“AMINOALKYL SUBSTITUTED ARYL SULFAMIDE DERIVATIVES AND METHODS OF THEIR USE” (Wyeth, priority 2006, published 2008)", "note": "Structures can show the parent of a compound that is named as a salt."}
{"biological_target": "human norepinephrine transporter (hNET) (Homo sapiens, UniProt P23975)", "sequence (P23975 whole entry)": "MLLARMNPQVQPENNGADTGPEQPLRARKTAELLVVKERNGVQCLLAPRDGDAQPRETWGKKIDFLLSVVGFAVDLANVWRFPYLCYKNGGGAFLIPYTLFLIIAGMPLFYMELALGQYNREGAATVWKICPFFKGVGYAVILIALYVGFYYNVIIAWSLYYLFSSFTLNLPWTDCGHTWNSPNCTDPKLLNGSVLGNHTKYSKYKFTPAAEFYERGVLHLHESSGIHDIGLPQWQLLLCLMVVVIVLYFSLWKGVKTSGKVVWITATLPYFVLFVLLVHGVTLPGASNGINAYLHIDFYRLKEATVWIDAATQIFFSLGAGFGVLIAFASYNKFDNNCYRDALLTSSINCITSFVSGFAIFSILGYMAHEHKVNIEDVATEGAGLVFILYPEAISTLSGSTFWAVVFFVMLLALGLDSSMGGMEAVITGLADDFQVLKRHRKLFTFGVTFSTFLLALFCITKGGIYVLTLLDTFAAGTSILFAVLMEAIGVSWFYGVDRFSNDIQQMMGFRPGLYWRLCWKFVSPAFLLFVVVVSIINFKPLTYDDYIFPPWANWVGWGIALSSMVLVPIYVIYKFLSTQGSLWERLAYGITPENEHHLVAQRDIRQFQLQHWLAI", "experiment": "hNET uptake, Protocol B: cell based norepinephrine reuptake assay using recombinant hNET (MDCK-Net6 cells)", "settings": "MDCK-Net6, read-out: NE uptake (Protocol B) % inhibition @ 6 uM", "units": {"inhibition at 6 µM": "%"}}
{"smiles": "CN(C)CCCCN1c2ccccc2N(c2ccc(F)cc2Cl)S1(=O)=O", "note": "[Example 88, 4-[3-(2-chloro-4-fluorophenyl)-2,2-dioxido-2,1,3-benzothiadiazol-1(3H)-yl]-N,N-dimethylbutan-1-amine hydrochloride]", "inhibition at 6 µM": 57}
{"biological_target": "human norepinephrine transporter (hNET) (Homo sapiens, UniProt P23975)", "experiment": "hNET uptake, Protocol B: cell based norepinephrine reuptake assay using recombinant hNET (MDCK-Net6 cells)", "settings": "NE uptake (Protocol B) IC50 (nM), MDCK-Net6 cells, 3H-NE 16 nM", "units": {"IC50": "nM"}}
{"smiles": "CN(C)CCCN1c2c(F)cccc2N(c2ccc(F)cc2F)S1(=O)=O", "note": "[Example 80, 3-[3-(2,4-Difluorophenyl)-7-fluoro-2,2-dioxido-2,1,3-benzothiadiazol-1(3H)-yl]-N,N-dimethylpropan-1-amine hydrochloride]", "IC50": 448}
{"smiles": "CNCCCN1c2ccccc2N(c2ccc(F)cc2C)S1(=O)=O", "note": "[Example 62, 3-[3-(4-fluoro-2-methylphenyl)-2,2-dioxido-2,1,3-benzothiadiazol-1(3H)-yl]-N-methylpropan-1-amine]", "IC50": 50.9}
{"smiles": "CNCCCN1c2ccccc2N(c2cc(C)ccn2)S1(=O)=O", "note": "[Example 30, N-methyl-3-[3-(4-methylpyridin-2-yl)-2,2-dioxido-2,1,3-benzothiadiazol-1(3H)-yl]propan-1-amine hydrochloride]", "IC50": 15.3}
{"smiles": "CNCCCN1c2ccccc2N(c2ccccc2C)S1(=O)=O", "note": "[Example 16, N-methyl-3-[3-(2-methylphenyl)-2,2-dioxido-2,1,3-benzothiadiazol-1(3H)-yl]propan-1-amine]", "IC50": 7.06}
{"smiles": "O=S1(=O)N(CCCNC2CC2)c2ccccc2N1c1c(F)cccc1F", "note": "[Example 84, N-{3-[3-(2,6-Difluorophenyl)-2,2-dioxido-2,1,3-benzothiadiazol-1(3H)-yl]propyl}cyclopropanamine hydrochloride]", "IC50": 21}
{"smiles": "CNCCCCN1c2ccccc2N(c2ccc(F)cc2Cl)S1(=O)=O", "note": "[Example 87, 4-[3-(2-chloro-4-fluorophenyl)-2,2-dioxido-2,1,3-benzothiadiazol-1(3H)-yl]-N-methylbutan-1-amine hydrochloride]", "IC50": 82}
{"smiles": "CNCCCN1c2ccccc2N(c2ccc(F)cc2OC)S1(=O)=O", "note": "[Example 64, 3-[3-(4-fluoro-2-methoxyphenyl)-2,2-dioxido-2,1,3-benzothiadiazol-1(3H)-yl]-N-methylpropan-1-amine]", "IC50": 295}
{"smiles": "CC(C)NCCCCN1c2ccccc2N(c2c(F)cccc2F)S1(=O)=O", "note": "[Example 123, 4-[3-(2,6-difluorophenyl)-2,2-dioxido-2,1,3-benzothiadiazol-1(3H)-yl]-N-isopropylbutan-1-amine hydrochloride]", "IC50": 1170}
{"smiles": "CNCCCN1c2ccccc2N(c2cccc3ccccc23)S1(=O)=O", "note": "[Example 13, N-methyl-3-[3-(1-naphthyl)-2,2-dioxido-2,1,3-benzothiadiazol-1(3H)-yl]propan-1-amine]", "IC50": 534}
{"smiles": "CNCCCN1c2ccccc2N(c2ccccc2OC)S1(=O)=O", "note": "[Example 9, 3-[3-(2-methoxyphenyl)-2,2-dioxido-2,1,3-benzothiadiazol-1(3H)-yl]-N-methylpropan-1-amine]", "IC50": 12.6}
{"smiles": "CCNCCCN1c2ccccc2N(c2ccc(F)c(F)c2F)S1(=O)=O", "note": "[Example 112, 3-[2,2-dioxido-3-(2,3,4-trifluorophenyl)-2,1,3-benzothiadiazol-1(3H)-yl]-N-ethylpropan-1-amine]", "IC50": 2770}
{"smiles": "CNCCCN1c2ccccc2N(c2cccc(Br)c2)S1(=O)=O", "note": "[Example 53, 3-[3-(3-bromophenyl)-2,2-dioxido-2,1,3-benzothiadiazol-1(3H)-yl]-N-methylpropan-1-amine hydrochloride]", "IC50": 24.5}
{"smiles": "NCCCN1c2ccccc2N(c2c(F)cccc2F)S1(=O)=O", "note": "[Example 69, 3-[3-(2,6-Difluorophenyl)-2,2-dioxido-2,1,3-benzothiadiazol-1(3H)-yl]propan-1-amine hydrochloride]", "IC50": 10.4}
{"smiles": "CCNCCCN1c2ccccc2N(c2ccc(F)cc2F)S1(=O)=O", "note": "[Example 119, 3-[3-(2,4-difluorophenyl)-2,2-dioxido-2,1,3-benzothiadiazol-1(3H)-yl]-N-ethylpropan-1-amine hydrochloride]", "IC50": 77}
{"smiles": "CNCCCN1c2cccc(F)c2N(c2ccccc2F)S1(=O)=O", "note": "[Example 73, 3-[4-fluoro-3-(2-fluorophenyl)-2,2-dioxido-2,1,3-benzothiadiazol-1(3H)-yl]-N-methylpropan-1-amine hydrochloride]", "IC50": 2.81}
{"smiles": "CNCCCN1c2ccccc2N(c2cccc(Cl)c2)S1(=O)=O", "note": "[Example 68, 3-[3-(3-Chlorophenyl)-2,2-dioxido-2,1,3-benzothiadiazol-1(3H)-yl]-N-methylpropan-1-amine hydrochloride]", "IC50": 84.1}
{"smiles": "CCNCCCCN1c2ccccc2N(c2ccc(C)cc2F)S1(=O)=O", "note": "[Example 107, N-ethyl-4-[3-(2-fluoro-4-methylphenyl)-2,2-dioxido-2,1,3-benzothiadiazol-1(3H)-yl]butan-1-amine]", "IC50": 582}
{"smiles": "CNCCCN1c2cccnc2N(c2ccccc2)S1(=O)=O", "note": "[Example 24, 3-(2,2-dioxido-3-phenyl[1,2,5]thiadiazolo[3,4-b]pyridin-1(3H)-yl)-N-methylpropan-1-amine]", "IC50": 60.9}
{"smiles": "CNCCCN1c2cccc(F)c2N(c2ccc(F)cc2F)S1(=O)=O", "note": "[Example 79, 3-[3-(2,4-Difluorophenyl)-4-fluoro-2,2-dioxido-2,1,3-benzothiadiazol-1(3H)-yl]-N-methylpropan-1-amine hydrochloride]", "IC50": 9}
{"smiles": "CNCCCCN1c2ccccc2N(c2c(F)cccc2F)S1(=O)=O", "note": "[Example 83, 4-[3-(2,6-Difluorophenyl)-2,2-dioxido-2,1,3-benzothiadiazol-1(3H)-yl]-N-methylbutan-1-amine hydrochloride]", "IC50": 2}
{"smiles": "CN(C)CCCN1c2ccccc2N(c2ccc(F)cc2F)S1(=O)=O", "note": "[Example 118, 3-[3-(2,4-difluorophenyl)-2,2-dioxido-2,1,3-benzothiadiazol-1(3H)-yl]-N,N-dimethylpropan-1-amine hydrochloride]", "IC50": 153}
{"smiles": "CNCCCN1c2ccccc2N(c2ccc(F)cc2Cl)S1(=O)=O", "note": "[Example 60, 3-[3-(2-Chloro-4-fluorophenyl)-2,2-dioxido-2,1,3-benzothiadiazol-1(3H)-yl]-N-methylpropan-1-amine hydrochloride]", "IC50": 40.2}
{"smiles": "CNCCCN1c2cc(C)ccc2N(c2ccccc2)S1(=O)=O", "note": "[Example 40, N-methyl-3-(6-methyl-2,2-dioxido-3-phenyl-2,1,3-benzothiadiazol-1(3H)-yl)propan-1-amine]", "IC50": 252}
{"smiles": "CNCCCN1c2c(F)cccc2N(c2ccccc2F)S1(=O)=O", "note": "[Example 76, 3-[7-fluoro-3-(2-fluorophenyl)-2,2-dioxido-2,1,3-benzothiadiazol-1(3H)-yl]-N-methylpropan-1-amine]", "IC50": 5.24}
{"smiles": "CNCCCN1c2ccccc2N(c2ccc(F)cc2F)S1(=O)=O", "note": "[Example 75, 3-[3-(2,4-difluorophenyl)-2,2-dioxido-2,1,3-benzothiadiazol-1(3H)-yl]-N-methylpropan-1-amine hydrochloride]", "IC50": 4.17}
{"smiles": "O=S1(=O)N(CCNC2CCNCC2)c2ccccc2N1c1ccccc1F", "note": "[Example 133, N-{3-[3-(2-fluorophenyl)-2,2-dioxido-2,1,3-benzothiadiazol-1(3H)-yl]ethyl}piperidin-4-amine dihydrochloride]", "IC50": 45}
{"smiles": "CNCCCN1c2ccccc2N(c2ccccn2)S1(=O)=O", "note": "[Example 31, 3-(2,2-dioxido-3-pyridin-2-yl-2,1,3-benzothiadiazol-1(3H)-yl)-N-methylpropan-1-amine hydrochloride]", "IC50": 23.6}
{"smiles": "CN(C)CCCCCN1c2ccccc2N(c2ccc(F)cc2F)S1(=O)=O", "note": "[Example 117, 5-[3-(2,4-difluorophenyl)-2,2-dioxido-2,1,3-benzothiadiazol-1(3H)-yl]-N,N-dimethylpentan-1-amine hydrochloride]", "IC50": 7190}
{"smiles": "Cc1ccc(N2c3ccccc3N(CCCCN)S2(=O)=O)c(F)c1", "note": "[Example 105, 4-[3-(2-fluoro-4-methylphenyl)-2,2-dioxido-2,1,3-benzothiadiazol-1(3H)-yl]butan-1-amine]", "IC50": 125}
{"smiles": "O=S1(=O)N(CCCNC2CC2)c2ccccc2N1c1ccc(F)cc1F", "note": "[Example 85, N-{3-[3-(2,4-Difluorophenyl)-2,2-dioxido-2,1,3-benzothiadiazol-1(3H)-yl]propyl}cyclopropanamine hydrochloride]", "IC50": 203}
{"smiles": "CNCCCCN1c2ccccc2N(c2ccc(F)c(F)c2)S1(=O)=O", "note": "[Example 110, 4-[3-(3,4-difluorophenyl)-2,2-dioxido-2,1,3-benzothiadiazol-1(3H)-yl]-N-methylbutan-1-amine]", "IC50": 39}
{"smiles": "CC(C)NCCCN1c2ccccc2N(c2c(F)cccc2F)S1(=O)=O", "note": "[Example 127, 3-[3-(2,6-difluorophenyl)-2,2-dioxido-2,1,3-benzothiadiazol-1(3H)-yl]-N-isopropylpropan-1-amine hydrochloride]", "IC50": 148}
{"smiles": "CNCCCN1c2cc(C#N)ccc2N(c2ccccc2)S1(=O)=O", "note": "[Example 43, 3-[3-(methylamino)propyl]-1-phenyl-1,3-dihydro-2,1,3-benzothiadiazole-5-carbonitrile 2,2-dioxide]", "IC50": 1320}
{"smiles": "NCCCN1c2ccccc2N(c2ccccc2F)S1(=O)=O", "note": "[Example 56, 3-[3-(2-fluorophenyl)-2,2-dioxido-2,1,3-benzothiadiazol-1(3H)-yl]propan-1-amine]", "IC50": 13.1}
{"smiles": "CNCCCN1c2ccc(C)cc2N(c2ccccc2)S1(=O)=O", "note": "[Example 38, N-methyl-3-(5-methyl-2,2-dioxido-3-phenyl-2,1,3-benzothiadiazol-1(3H)-yl)propan-1-amine]", "IC50": 13.9}
{"smiles": "CNCCCN1c2ccccc2N(c2ccc(C)cc2)S1(=O)=O", "note": "[Example 8, N-methyl-3-[3-(4-methylphenyl)-2,2-dioxido-2,1,3-benzothiadiazol-1(3H)-yl]propan-1-amine]", "IC50": 35.7}
{"smiles": "CNCCCN1c2ccccc2N(c2c(F)cc(F)cc2F)S1(=O)=O", "note": "[Example 77, 3-[2,2-Dioxido-3-(2,4,6-trifluorophenyl)-2,1,3-benzothiadiazol-1(3H)-yl]-N-methylpropan-1-amine hydrochloride]", "IC50": 15}
{"smiles": "CNCCCCN1c2ccccc2N(c2ccccc2)S1(=O)=O", "note": "[Example 18, 4-(2,2-dioxido-3-phenyl-2,1,3-benzothiadiazol-1(3H)-yl)-N-methylbutan-1-amine]", "IC50": 0.3}
